Data published in patent US7550437B2, “Compositions for preventing and treating digestive organs diseases” (Fuso Pharmaceutical Industries, Ltd., priority 2000, dated 2009).
No end group written: not given here.

Tests used:
PAR-2 = biological target: T1, PAR-2 (Homo sapiens, UniProt P55085); conditions: literature statement; cited from earlier work
T1 sequence (P55085 26-397): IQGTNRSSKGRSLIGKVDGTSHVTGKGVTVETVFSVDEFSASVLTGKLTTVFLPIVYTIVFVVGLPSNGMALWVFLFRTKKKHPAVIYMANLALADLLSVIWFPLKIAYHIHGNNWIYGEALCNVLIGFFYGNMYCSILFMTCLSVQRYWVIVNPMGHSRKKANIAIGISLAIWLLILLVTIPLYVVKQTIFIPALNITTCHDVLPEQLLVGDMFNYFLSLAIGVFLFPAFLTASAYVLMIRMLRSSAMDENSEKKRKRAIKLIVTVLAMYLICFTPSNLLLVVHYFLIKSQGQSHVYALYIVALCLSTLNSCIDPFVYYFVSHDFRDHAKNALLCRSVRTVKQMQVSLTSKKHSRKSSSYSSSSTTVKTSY

[1] = test system: gastric acid secretion accelerated by carbachol; assay: Carbachol-induced gastric acid secretion in pylorus-ligated rats; format: in vivo, rat; conditions: carbachol 60 μg/kg s.c., amastatin 2.5 μmol/kg i.v., FIG. 1
Procedure: In an experiment, male Wistar rats at 5 weeks of age were used. After each animal was pre-bred for one week under the circumstance of a room temperature of 23±2° C., the humidity of 50±5%, and the light-and-darkness cycle (light term: from 07:00 to 19:00) of 12 hours, each animal was subjected to the experiment. Water and solid feed were supplied freely during the pre-breeding period and the experiment period.
Moreover, the number of animals used in the experiment was 4-14 animals in all cases, and the results were shown by Mean±Standard Error. The significant difference test was performed by Tukey's multiple comparison test.
A rat was anesthetized with ether after 18-24 hours of fasting, and an abdomen was incised by about 1 cm below a lower end of xiphoid sternum. Duodenum was pinched out of the opened abdominal hole, a part joining pylorus and duodenum was ligated, and the incised abdomen was sutured. After 30 minutes, the rat was exsanguinated to kill, the stomach was isolated, and gastric juice was collected. After the collected gastric juice was filtered, the acidity in the gastric juice was measured by a titration method. […]

[2] = test system: rat gastric mucosal cells; assay: Mucin secretion from rat gastric mucosal cells in vivo (galactose in gastric juice); conditions: amastatin 2.5 μmol/kg i.v., FIG. 2
Procedure: The gastric pylorus was ligated by the same procedure as described above. Amastatin (2.5 μmol/kg) was administered intravenously immediately after the ligation, and SLp-NH2, LSp-NH2 or tcLP-NH2 was administered intravenously at 1 minute after administration of amastatin. 30 minutes after ligation, the rats was exsanguinated to kill, the stomach was isolated, and the gastric juice was collected. The collected sample of gastric juice was centrifuged at 10000×g for 30 min, and the supernatant was subjected to ultrafiltration with Millipore MC FREE (MW10000), followed by lyophilization. 2M TFA was added to the lyophilized sample, which was hydrolyzed under the conditions at 100° C. for 4 hours. Centrifugal separation was then performed and the supernatant was evaporated to dryness. 200 μL of 0.1 M Tris-HCl was added to the evaporated and dried sample to dissolve it. After 150 μL of a reaction solution containing galactose oxidase (1U), peroxidase (0.5 mU) and HPPA (0.25 μmol) was added to 50 μL of the sample and the mixture was incubated at 37° C. for 30 minutes, an amount of galactose was measured at an excitation wavelength of 320 nm and an fluorescence wavelength of 405 nm.

[3] = test system: gastric mucosa lesion by ethanol; assay: Ethanol-induced gastric mucosa lesion; format: in vivo, rat; conditions: 0.25 and 0.5 μmol/kg i.v. 5 min before 75% ethanol p.o.; amastatin 2.5 μmol/kg; FIG. 3
Procedure: (§1) Preparation of ethanol- and hydrochloric acid-ethanol-induced gastric mucosa lesion was performed according to the method of Robert et al. (Robert, A. et al., Gastroenteral, 77, 433-443, 1979). That is, after the rats were fasted for 18 to 24 hours, 1 mL of 75% ethanol or 60% ethanol containing 150 mM hydrochloric acid was administered orally. Rats were exsanguinated to kill after 60 min and their stomaches were isolated. The isolated stomach was incised along with greater curvature, washed and fixed with 10% formaldehyde, and an area of gastric mucosa lesion was measured using Image analyzing software, Mac acpect (Mitani corporation, Chiba prefecture). SLp-NH2 was administered intravenously at 5 minutes before administration of 75% ethanol or 60% ethanol containing 150 mM hydrochloric acid. Amastatin (2.5 μmol/kg) was administered at 1 minute before administration of SLp-NH2.

[4] = test system: lesion in gastric mucosa by hydrochloric acid-ethanol; assay: Hydrochloric acid-ethanol-induced gastric mucosa lesion; format: in vivo, rat; conditions: 0.25 and 0.5 μmol/kg i.v. 5 min before 60% ethanol containing 150 mM hydrochloric acid p.o.; amastatin 2.5 μmol/kg; FIG. 4
Procedure: as §1

human PAR-1 = biological target: T2, human PAR-1 (Homo sapiens, UniProt P25116); conditions: literature statement; cited from earlier work
T2 sequence (P25116 22-425): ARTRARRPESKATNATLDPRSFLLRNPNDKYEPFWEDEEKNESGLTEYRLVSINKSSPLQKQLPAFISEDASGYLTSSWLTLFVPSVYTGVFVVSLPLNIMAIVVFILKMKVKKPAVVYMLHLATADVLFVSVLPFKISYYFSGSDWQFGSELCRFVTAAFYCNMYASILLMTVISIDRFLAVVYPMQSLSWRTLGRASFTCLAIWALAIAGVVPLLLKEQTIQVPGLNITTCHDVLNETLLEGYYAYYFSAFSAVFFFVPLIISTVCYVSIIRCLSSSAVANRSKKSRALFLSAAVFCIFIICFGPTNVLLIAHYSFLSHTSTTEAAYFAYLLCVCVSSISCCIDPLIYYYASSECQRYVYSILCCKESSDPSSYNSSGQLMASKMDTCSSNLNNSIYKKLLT

## Leu-Ser-Ile-Gly-Arg-Leu-NH2 (LSIGRL-NH2) [LSp-NH2, control peptide for SLp-NH2]
PAR-2
  agonist activity on PAR-2: inactive substance
[1]; 5 μmol/kg i.v.
  effect on gastric acid secretion accelerated by carbachol (amount of secreted gastric acid): did not affect
[2]; i.v., dose not given
  effect on mucin secretion from rat gastric mucosal cells: did not affect mucin secretion

## Ser-Leu-Ile-Gly-Arg-Leu-NH2 (SLIGRL-NH2) [SLp-NH2]
[3]
  effect on gastric mucosa lesion (area) by ethanol: showed the protective effect
[4]
  effect on gastric mucosa lesion (area) by hydrochloric acid-ethanol: the protective effect was shown
[1]; 1.25 to 5 μmol/kg i.v.
  effect on gastric acid secretion accelerated by carbachol (amount of secreted gastric acid): inhibited dose-dependently
[2]; 0.02 to 5 μmol/kg i.v.
  effect on mucin secretion from rat gastric mucosal cells: accelerated dose-dependently

## Ser-Phe-Leu-Leu-Arg-NH2 (SFLLR-NH2) [SFp-NH2]
Human PAR-1
  agonist activity on human PAR-1: agonist activity on human PAR-1
PAR-2
  agonist activity on PAR-2: week agonist activity on PAR-2

## trans-cinnamoyl-Leu-Ile-Gly-Arg-Leu-ornithine-NH2 [tcLp-NH2]
PAR-2
  agonist activity on PAR-2: specifically activate PAR-2
[2]; i.v., dose not given
  effect on mucin secretion from rat gastric mucosal cells: also accelerated the mucin secretion
